Experimental findings from US20240360114A1 (SIRONAX LTD., priority 2021, published 2024) are described below.

SMILES strings stand for the structures.

The first assay concerns HT-1080 cells. The assay is described as follows: HT-1080 cell viability assay (ferroptosis induced by RSL3, Cell Titer-Glo). The assay is classed as cell-based. The settings on record: Homo sapiens, HT-1080, 20 h, ferroptosis inducer RSL3, 20 hours, ferroptosis inhibitory activity, Table 2. The protocol: Example 2. Determination of EC50 Values in HT-1080 Cell Viability Assay
HT-1080 (ATCC, CCL-121) cells (6000 in 100 μl) were seeded in 96-well plates (Corning) and cultured in a 37° C. incubator with a humidified atmosphere of 5% CO2 for overnight. Cells were then treated with ferroptosis inducer RSL3 (TargetMol) and a 3-fold, 10-point serial dilution series of compounds with 1.1 μM as the highest concentration, for 20 hours. Cell viability was assessed using the Cell Titer-Glo Kit (Promega). The luminescence intensity was measured with a microplate reader (Envision, PerkinElmer), and cell viability was calculated by normalizing the data to untreated controls. The EC50 values of the compounds (e.g., Compounds 1-573 and 574-661) were calculated in GraphPad Prism (GraphPad Software, Inc., San Diego, CA, USA). The curves were fitted using a non-linear regression model with a sigmoidal dose response.
`NC1CCC(Nc2ccc(N3CCC(C(F)(F)F)CC3)c(F)c2)CC1` (stereo not shown) [Compound 68, N1-(3-fluoro-4-(4-(trifluoromethyl)piperidin-1-yl)phenyl)cyclohexane-1,4-diamine] registered an EC50 of 0.1 to 100 nM.

As for `NC1CCC(Nc2cccc3ccccc23)CC1` (stereo not shown) [Compound 238, N1-(naphthalen-1-yl)cyclohexane-1,4-diamine], the concentration for a half-maximal effect (EC50) lay in the range of 0.1 to 100 nM.

Molecule `CC(C)C1CCN(c2ncc(NC[C@H]3CC[C@@H](N)CC3)cn2)CC1` [Compound 361, N-(((1s,4s)-4-aminocyclohexyl)methyl)-2-(4-isopropylpiperidin-1-yl)pyrimidin-5-amine] registered an EC50 of 0.1 to 100 nM.

Molecule `NC1CC2(C1)CC(Nc1ccc(N3CCC(C(F)(F)F)CC3)cc1)C2` (stereo not shown) [Compound 357, N2-(4-(4-(trifluoromethyl)piperidin-1-yl)phenyl)spiro[3.3]heptane-2,6-diamine] yielded an EC50 of 0.1 to 100 nM.

Molecule `CN1CCC(Nc2ccc(C3CCC(C)(C)CC3)cc2)CC1=O` (stereo not shown) [Compound 103, 4-((4-(4,4-dimethylcyclohexyl)phenyl)amino)-1-methylpiperidin-2-one] returned an EC50 of 100 to 1000 nM.

In turn, `CC1CN(c2ccc(NC[C@H]3CC[C@H](N)CC3)c(F)c2)CC(C)O1` (stereo partly shown) [Compound 431, N-(((1r,4r)-4-aminocyclohexyl)methyl)-4-(2,6-dimethylmorpholino)-2-fluoroaniline] registered an EC50 of 0.1 to 100 nM.

`O=C1NC[C@H](C(=O)NCC2CCC(Nc3ccc(C4CCCCC4)cc3)CC2)N1` (single isomer, unassigned) [Compound 117A] displayed an EC50 of 0.1 to 100 nM.

Turning to `CCCCCNc1ccc(N2CCC(C(F)(F)F)CC2)cc1` [Compound 15, N-pentyl-4-(4-(trifluoromethyl)piperidin-1-yl)aniline], the EC50 lay within 0.1 to 100 nM.

`CCC1CCN(c2ccc(NC3CCC(N)CC3)cc2)CC1` (stereo not shown) [Compound 61, N1-(4-(4-ethylpiperidin-1-yl)phenyl)cyclohexane-1,4-diamine] came in with an EC50 of 0.1 to 100 nM.

`CC1(C)CCC(C)(C)c2cc(NC[C@H]3CC[C@H](N)CC3)ccc21` [Compound 338, N-(((1r,4r)-4-aminocyclohexyl)methyl)-5,5,8,8-tetramethyl-5,6,7,8-tetrahydronaphthalen-2-amine] had an EC50 of 0.1 to 100 nM.

As to `CC(C)(C)c1ccc(NC2CCC(NS(N)(=O)=O)CC2)cc1` (stereo not shown) [Compound 259A], the EC50 was 100 to 1000 nM.

Consider `CC1(C)CCC(c2ccc(NC3CCCC(CN)CC3)cc2)CC1` (stereo not shown) [Compound 85, 4-(aminomethyl)-N-(4-(4,4-dimethylcyclohexyl)phenyl)cycloheptan-1-amine], for which the EC50 is 0.1 to 100 nM.

In the case of `O=C1NC[C@H](C(=O)NC2CCC(Nc3ccc(C4CCCCC4)cc3)CC2)N1` (stereo partly drawn) [Compound 111, (R)—N-(4-((4-cyclohexylphenyl)amino)cyclohexyl)-2-oxoimidazolidine-4-carboxamide], the concentration giving a half-maximal response (EC50) was 100 to 1000 nM.

Molecule `CC1(C)CN(c2ccc(NC[C@H]3CC[C@H](N)CC3)cc2F)CC(C)(C)O1` [Compound 513, N-(((1r,4r)-4-aminocyclohexyl)methyl)-3-fluoro-4-(2,2,6,6-tetramethylmorpholino)aniline] yielded a concentration giving a half-maximal response (EC50) of 0.1 to 100 nM.

Take `Cc1nc(N2CCC(C(F)(F)F)CC2)ccc1NC1CC2(CC(N)C2)C1` (stereo not shown) [Compound 376, N2-(2-methyl-6-(4-(trifluoromethyl)piperidin-1-yl)pyridin-3-yl) spiro[3.3]heptane-2,6-diamine]: the concentration for a half-maximal effect (EC50) was 0.1 to 100 nM.

`Cc1nc(N2CC3(CCOCC3)C2)ccc1NC1CC2(CC(N)C2)C1` (stereo not shown) [Compound 494, N2-(2-methyl-6-(7-oxa-2-azaspiro[3.5]nonan-2-yl)pyridin-3-yl)spiro[3.3]heptane-2,6-diamine] displayed a 50% effective concentration (EC50) of 100 to 1000 nM.

Take `NC1CC2(C1)CC(Nc1ccc(N3CCC(C(F)(F)F)CC3)nc1)C2` (stereo not shown) [Compound 397, N2-(6-(4-(trifluoromethyl)piperidin-1-yl)pyridin-3-yl)spiro[3.3]heptane-2,6-diamine]: the EC50 was 0.1 to 100 nM.

`CC(C)(C)c1ccc(NC2CCC(N)CC2)cc1Cl` (stereo not shown) [Compound 201, N1-(4-(tert-butyl)-3-chlorophenyl)cyclohexane-1,4-diamine]: the EC50 lay in the range of 100 to 1000 nM.

In turn, `Cc1nc(N2CCC(C(F)(F)F)CC2)ccc1NC1CCC(CN)CC1` (stereo not shown) [Compound 25, N-(4-(aminomethyl)cyclohexyl)-2-methyl-6-(4-(trifluoromethyl)piperidin-1-yl)pyridin-3-amine] returned an EC50 of 0.1 to 100 nM.

In the case of `Cc1nc(N2CC(C)(C)OC(C)(C)C2)ccc1NC[C@H]1CC[C@H](N)CC1` [Compound 514, N-(((1r,4r)-4-aminocyclohexyl)methyl)-2-methyl-6-(2,2,6,6-tetramethylmorpholino)pyridin-3-amine], the concentration giving a half-maximal response (EC50) lay within 0.1 to 100 nM.

`Cc1cc(N2CC3(COC3)C2)ccc1NC1CC2(CC(N)C2)C1` (stereo not shown) [Compound 482, N2-(2-methyl-4-(2-oxa-6-azaspiro[3.3]heptan-6-yl)phenyl)spiro[3.3]heptane-2,6-diamine] had an EC50 of 0.1 to 100 nM.

Regarding `CC(C)(C)c1ccc(NCC2CCC(N)C2)cc1` (stereo not shown) [Compound 328, N-((3-aminocyclopentyl)methyl)-4-(tert-butyl)aniline], the EC50 was 0.1 to 100 nM.

As to `CC(C)(C)c1ccc(NC2CCC(CCCCCN)CC2)cc1` (stereo not shown) [Compound 326, N-(4-(5-aminopentyl)cyclohexyl)-4-(tert-butyl)aniline], the half-maximal effective concentration (EC50) lay in the range of 0.1 to 100 nM.

With `Cc1cc(N2CC(C)OC(C)C2)ccc1NC[C@H]1CC[C@H](N)CC1` (stereo partly shown) [Compound 387, N-(((1r,4r)-4-aminocyclohexyl)methyl)-4-(2,6-dimethylmorpholino)-2-methylaniline], the EC50 fell in the range of 0.1 to 100 nM.

In turn, `NC1CCC(Nc2ccc3nc(N4CCC(C(F)(F)F)CC4)cnc3c2)CC1` (stereo not shown) [Compound 573, N1-(2-(4-(trifluoromethyl)piperidin-1-yl)quinoxalin-6-yl)cyclohexane-1,4-diamine] yielded an EC50 of 0.1 to 100 nM.

`Cc1nc(N2CC3CCC(C2)O3)ccc1NC1CC2(CC(N)C2)C1` (stereo not shown) [Compound 486, N2-(6-(8-oxa-3-azabicyclo[3.2.1]octan-3-yl)-2-methylpyridin-3-yl)spiro[3.3]heptane-2,6-diamine] gave an EC50 of 0.1 to 100 nM.

In turn, `Cc1nc(N2CCCOCC2)ccc1NC1CC2(CC(N)C2)C1` (stereo not shown) [Compound 499, N2-(2-methyl-6-(1,4-oxazepan-4-yl)pyridin-3-yl)spiro[3.3]heptane-2,6-diamine] came in with a half-maximal effective concentration (EC50) of 100 to 1000 nM.

Staying with this assay, now noted: Homo sapiens, HT-1080, 20 h, ferroptosis inducer RSL3, 20 hours, ferroptosis inhibitory activity, Table 3.
Regarding `Cc1nc(N2CCC(C(C)(C)O)CC2)ccc1NC1CC2(CC(N)C2)C1` (stereo not shown) [Compound 599], the half-maximal effective concentration (EC50) was 100 to 1000 nM.

Regarding `Cc1cc(NC(C)(C)C)ccc1NC[C@H]1CC[C@H](N)CC1` [Compound 597, N^1-(((1r,4r)-4-aminocyclohexyl)methyl)-N^4-(tert-butyl)-2-methylbenzene-1,4-diamine], the concentration giving a half-maximal response (EC50) fell in the range of 0.1 to 100 nM.

Regarding `CC1CN(c2ccc(NC3CC4(CC(N)C4)C3)c(F)n2)CC(C)N1CC(F)(F)F` (stereo not shown) [Compound 579, N2-(6-(3,5-dimethyl-4-(2,2,2-trifluoroethyl)piperazin-1-yl)-2-fluoropyridin-3-yl)spiro[3.3]heptane-2,6-diamine], the EC50 was in the range of 0.1 to 100 nM.

Staying with this assay, now noted: Homo sapiens, ferroptosis inducer RSL3, 20 hours, ferroptosis inhibitory activity, Table 2.
Regarding `FC(F)(F)C1CCN(c2ccc(NC3CCNCC3)cc2)CC1` [Compound 20, N-(4-(4-(trifluoromethyl)piperidin-1-yl)phenyl)piperidin-4-amine], the EC50 lay in the range of 0.1 to 100 nM.
